Data published in paper PMC8975272, “Novel glucagon-like peptide-1 analogue exhibits potency-driven G-protein biased agonism with promising effects on diabetes and diabetic dry eye syndrome” (Bioengineered, 2022).

Experiment: Pharmacokinetics in CD-1 mice
Assay type: in vivo, mouse
Details: subcutaneous injection, same dose, CD-1 mice

Q: For CC[C@H](C)[C@H](NC(=O)[C@H](Cc1ccccc1)NC(=O)[C@H](CCC(=O)O)NC(=O)[C@H](CCCCNC(=O)COCCOCCNC(=O)COCCOCCNC(=O)CC[C@H](NC(=O)CCCCCCCCCCCCCCCCC(=O)O)C(=O)O)NC(=O)[C@H](C)NC(=O)[C@H](C)NC(=O)[C@H](CCC(N)=O)NC(=O)CNC(=O)[C@H](CCC(=O)O)NC(=O)[C@H](CC(C)C)NC(=O)[C@H](Cc1ccc(O)cc1)NC(=O)[C@H](CO)NC(=O)[C@H](CO)NC(=O)[C@@H](NC(=O)[C@H](CC(=O)O)NC(=O)[C@H](CO)NC(=O)[C@@H](NC(=O)[C@H](Cc1ccccc1)NC(=O)[C@@H](NC(=O)CNC(=O)[C@H](CCC(=O)O)NC(=O)C(C)(C)NC(=O)[C@@H](N)Cc1cnc[nH]1)[C@@H](C)O)[C@@H](C)O)C(C)C)C(=O)N[C@@H](C)C(=O)N[C@@H](Cc1c[nH]c2ccccc12)C(=O)N[C@@H](CC(C)C)C(=O)N[C@H](C(=O)N[C@@H](CCCNC(=N)N)C(=O)NCC(=O)N[C@@H](CCCNC(=N)N)C(=O)NCC(=O)O)C(C)C [Semaglutide, reference compound], which “Plasma half-life relative to SM-102” value is on record?
A: The value was “comparable”.
